Measurements as given in PubChem BioAssay AID1259407 (Chemical Carcinogenesis Research Information System (CCRIS), 2018).
Calls of active or inactive are those of the source. No rule for the calls is given here.

Test system: CCRIS mutagenicity, Ames/micronucleus/aberration tests
Experiment: CCRIS mutagenicity studies
[1] = Test System: AMES SALMONELLA TYPHIMURIUM, Strain/Indicator: TA97, Metabolic Activation: NONE, Method: PREINCUBATION
[2] = Test System: AMES SALMONELLA TYPHIMURIUM, Strain/Indicator: TA97, Metabolic Activation: RAT, LIVER, S-9, AROCLOR 1254, Method: PREINCUBATION
[3] = Test System: AMES SALMONELLA TYPHIMURIUM, Strain/Indicator: TA98, Metabolic Activation: NONE, Method: PREINCUBATION
[4] = Test System: AMES SALMONELLA TYPHIMURIUM, Strain/Indicator: TA100, Metabolic Activation: NONE, Method: PREINCUBATION
[5] = Test System: AMES SALMONELLA TYPHIMURIUM, Strain/Indicator: TA102, Metabolic Activation: NONE, Method: PREINCUBATION
[6] = Test System: AMES SALMONELLA TYPHIMURIUM, Strain/Indicator: TA102, Metabolic Activation: RAT, LIVER, S-9, AROCLOR 1254, Method: PREINCUBATION
[7] = Test System: AMES SALMONELLA TYPHIMURIUM, Strain/Indicator: TA1535, Metabolic Activation: NONE, Method: PREINCUBATION
[8] = Test System: AMES SALMONELLA TYPHIMURIUM, Strain/Indicator: TA1535, Metabolic Activation: NONE, Method: STANDARD PLATE
[9] = Test System: AMES SALMONELLA TYPHIMURIUM, Strain/Indicator: TA98, Metabolic Activation: NONE, Method: STANDARD PLATE
[10] = Test System: AMES SALMONELLA TYPHIMURIUM, Strain/Indicator: TA98, Metabolic Activation: RAT, LIVER, S-9, AROCLOR 1254, Method: STANDARD PLATE
[11] = Test System: AMES SALMONELLA TYPHIMURIUM, Strain/Indicator: TA100, Metabolic Activation: NONE, Method: STANDARD PLATE
[12] = Test System: AMES SALMONELLA TYPHIMURIUM, Strain/Indicator: TA100, Metabolic Activation: RAT, LIVER, S-9, AROCLOR 1254, Method: STANDARD PLATE
[13] = Test System: AMES SALMONELLA TYPHIMURIUM, Strain/Indicator: TA1538, Metabolic Activation: NONE, Method: STANDARD PLATE
[14] = Test System: AMES SALMONELLA TYPHIMURIUM, Strain/Indicator: TA1538, Metabolic Activation: RAT, LIVER, S-9, AROCLOR 1254, Method: STANDARD PLATE

How did the mutagenic call [1] turn out when `O=S(O)S(=O)O` was run?
The mutagenic call was “inactive; negative”.

What about the mutagenic call [2] of the same molecule?
Its mutagenic call is “inactive; negative”.

What about the mutagenic call [3] of the same molecule?
The mutagenic call was “inactive; negative”.

And the mutagenic call (Test System: AMES SALMONELLA TYPHIMURIUM, Strain/Indicator: TA98, Metabolic Activation: RAT LIVER S-9, PHENOBARBITAL AND BETA-NAPHTHOFLAVONE, Method: PREINCUBATION)?
Its mutagenic call is “inactive; negative”.

What about the mutagenic call (Test System: AMES SALMONELLA TYPHIMURIUM, Strain/Indicator: TA98, Metabolic Activation: RAT, LIVER, S-9, KC 500, Method: PREINCUBATION) of the same molecule?
The mutagenic call was “inactive; negative”.

What about the mutagenic call [4] of the same molecule?
The mutagenic call was “inactive; negative”.

What about the mutagenic call (Test System: AMES SALMONELLA TYPHIMURIUM, Strain/Indicator: TA100, Metabolic Activation: RAT LIVER S-9, PHENOBARBITAL AND BETA-NAPHTHOFLAVONE, Method: PREINCUBATION) of the same molecule?
The mutagenic call was “inactive; negative”.

What about the mutagenic call (Test System: AMES SALMONELLA TYPHIMURIUM, Strain/Indicator: TA100, Metabolic Activation: RAT, LIVER, S-9, KC 500, Method: PREINCUBATION) of the same molecule?
The mutagenic call was “inactive; negative”.

What about the mutagenic call [5] of the same molecule?
The mutagenic call was “inactive; negative”.

And the mutagenic call [6]?
The mutagenic call was “inactive; negative”.

What about the mutagenic call [7] of the same molecule?
The mutagenic call was “inactive; negative”.

What about the mutagenic call (Test System: AMES SALMONELLA TYPHIMURIUM, Strain/Indicator: TA1535, Metabolic Activation: RAT LIVER S-9, PHENOBARBITAL AND BETA-NAPHTHOFLAVONE, Method: PREINCUBATION) of the same molecule?
The mutagenic call was “inactive; negative”.

What about the mutagenic call (Test System: AMES SALMONELLA TYPHIMURIUM, Strain/Indicator: TA1535, Metabolic Activation: RAT, LIVER, S-9, KC 500, Method: PREINCUBATION) of the same molecule?
The mutagenic call was “inactive; negative”.

And the mutagenic call (Test System: AMES SALMONELLA TYPHIMURIUM, Strain/Indicator: TA1537, Metabolic Activation: NONE, Method: PREINCUBATION)?
Its mutagenic call is “inactive; negative”.

And the mutagenic call (Test System: AMES SALMONELLA TYPHIMURIUM, Strain/Indicator: TA1537, Metabolic Activation: RAT LIVER S-9, PHENOBARBITAL AND BETA-NAPHTHOFLAVONE, Method: PREINCUBATION)?
Its mutagenic call is “inactive; negative”.

And the mutagenic call (Test System: AMES SALMONELLA TYPHIMURIUM, Strain/Indicator: TA1537, Metabolic Activation: RAT, LIVER, S-9, KC 500, Method: PREINCUBATION)?
Its mutagenic call is “inactive; negative”.

What about the mutagenic call (Test System: AMES SALMONELLA TYPHIMURIUM, Strain/Indicator: TA1538, Metabolic Activation: NONE, Method: PREINCUBATION) of the same molecule?
Its mutagenic call is “inactive; negative”.

And the mutagenic call (Test System: AMES SALMONELLA TYPHIMURIUM, Strain/Indicator: TA1538, Metabolic Activation: RAT LIVER S-9, PHENOBARBITAL AND BETA-NAPHTHOFLAVONE, Method: PREINCUBATION)?
The mutagenic call was “inactive; negative”.

What about the mutagenic call (Test System: AMES SALMONELLA TYPHIMURIUM, Strain/Indicator: TA1538, Metabolic Activation: RAT, LIVER, S-9, KC 500, Method: PREINCUBATION) of the same molecule?
Its mutagenic call is “inactive; negative”.

And the mutagenic call (Test System: E. COLI, Strain/Indicator: WP2 UVRA, Metabolic Activation: NONE, Method: PREINCUBATION)?
The mutagenic call was “inactive; negative”.

And the mutagenic call (Test System: E. COLI, Strain/Indicator: WP2UVRA, Metabolic Activation: NONE, Method: PREINCUBATION)?
The mutagenic call was “inactive; negative”.

What about the mutagenic call (Test System: E. COLI, Strain/Indicator: WP2UVRA, Metabolic Activation: RAT LIVER S-9, PHENOBARBITAL AND BETA-NAPHTHOFLAVONE, Method: PREINCUBATION) of the same molecule?
The mutagenic call was “inactive; negative”.

And the mutagenic call (Test System: E. COLI, Strain/Indicator: WP2 UVRA, Metabolic Activation: RAT, LIVER, S-9, KC 500, Method: PREINCUBATION)?
Its mutagenic call is “inactive; negative”.

How did the mutagenic call [3] turn out when `NCC(=O)CCC(=O)O` was run?
Its mutagenic call is “inactive; negative”.

And the mutagenic call [4]?
The mutagenic call was “inactive; negative”.

And the mutagenic call [5]?
The mutagenic call was “active; positive”.

What about the mutagenic call (Test System: AMES SALMONELLA TYPHIMURIUM, Strain/Indicator: TA104, Metabolic Activation: NONE, Method: PREINCUBATION) of the same molecule?
The mutagenic call was “active; positive”.

And the mutagenic call [7]?
The mutagenic call was “inactive; negative”.

`CCN=NNCC` was tested. Which mutagenic call [8] did it give?
The mutagenic call was “active; positive”.

`CCOC(=O)C(=NNc1ccc(-c2ccc(NN=C(C(=O)OCC)C(=O)OCC)cc2)cc1)C(=O)OCC` was tested. Which mutagenic call (Test System: AMES SALMONELLA TYPHIMURIUM, Strain/Indicator: TA98, Metabolic Activation: HAMSTER, LIVER, S-9, Method: PREINCUBATION (PRIVAL METHOD)) did it give?
The mutagenic call was “inactive; negative”.

With `COc1cc(N=Nc2ccc(N(CCO)CCO)cc2)ccc1N=Nc1c(S(=O)(=O)O)cc2ccc(N)cc2c1O` as the molecule, how does the mutagenic call [9] read?
The mutagenic call was “inactive; negative”.

What about the mutagenic call [10] of the same molecule?
The mutagenic call was “active; positive”.

And the mutagenic call [11]?
The mutagenic call was “inactive; negative”.

What about the mutagenic call [12] of the same molecule?
Its mutagenic call is “inactive; negative”.

What about the mutagenic call [13] of the same molecule?
Its mutagenic call is “inactive; negative”.

And the mutagenic call [14]?
The mutagenic call was “active; positive”.

Which mutagenic call [1] does the source give for `O=C(O)O` here?
The mutagenic call was “inactive; negative”.

And the mutagenic call [2]?
Its mutagenic call is “inactive; negative”.

What about the mutagenic call (Test System: AMES SALMONELLA TYPHIMURIUM, Strain/Indicator: TA98, Metabolic Activation: HAMSTER, LIVER, S-9, AROCLOR 1254, Method: STANDARD PLATE) of the same molecule?
The mutagenic call was “inactive; negative”.

What about the mutagenic call [9] of the same molecule?
The mutagenic call was “inactive; negative”.

And the mutagenic call [10]?
The mutagenic call was “inactive; negative”.

And the mutagenic call (Test System: AMES SALMONELLA TYPHIMURIUM, Strain/Indicator: TA100, Metabolic Activation: HAMSTER, LIVER, S-9, AROCLOR 1254, Method: STANDARD PLATE)?
The mutagenic call was “inactive; negative”.

What about the mutagenic call [11] of the same molecule?
Its mutagenic call is “inactive; negative”.

What about the mutagenic call [12] of the same molecule?
Its mutagenic call is “inactive; negative”.

What about the mutagenic call [5] of the same molecule?
The mutagenic call was “inactive; negative”.

And the mutagenic call [6]?
Its mutagenic call is “inactive; negative”.

And the mutagenic call (Test System: AMES SALMONELLA TYPHIMURIUM, Strain/Indicator: TA1535, Metabolic Activation: HAMSTER, LIVER, S-9, AROCLOR 1254, Method: STANDARD PLATE)?
The mutagenic call was “inactive; negative”.

What about the mutagenic call [8] of the same molecule?
Its mutagenic call is “inactive; negative”.

And the mutagenic call (Test System: AMES SALMONELLA TYPHIMURIUM, Strain/Indicator: TA1535, Metabolic Activation: RAT, LIVER, S-9, AROCLOR 1254, Method: STANDARD PLATE)?
The mutagenic call was “inactive; negative”.

And the mutagenic call (Test System: AMES SALMONELLA TYPHIMURIUM, Strain/Indicator: TA1537, Metabolic Activation: HAMSTER, LIVER, S-9, AROCLOR 1254, Method: STANDARD PLATE)?
Its mutagenic call is “inactive; negative”.

And the mutagenic call (Test System: AMES SALMONELLA TYPHIMURIUM, Strain/Indicator: TA1537, Metabolic Activation: NONE, Method: STANDARD PLATE)?
Its mutagenic call is “inactive; negative”.

What about the mutagenic call (Test System: AMES SALMONELLA TYPHIMURIUM, Strain/Indicator: TA1537, Metabolic Activation: RAT, LIVER, S-9, AROCLOR 1254, Method: STANDARD PLATE) of the same molecule?
The mutagenic call was “inactive; negative”.

And the mutagenic call (Test System: AMES SALMONELLA TYPHIMURIUM, Strain/Indicator: TA1538, Metabolic Activation: HAMSTER, LIVER, S-9, AROCLOR 1254, Method: STANDARD PLATE)?
Its mutagenic call is “inactive; negative”.

What about the mutagenic call [13] of the same molecule?
The mutagenic call was “inactive; negative”.

And the mutagenic call [14]?
Its mutagenic call is “inactive; negative”.

What about the mutagenic call (Test System: CHINESE HAMSTER V-79, Strain/Indicator: V-79/6-THIOGUANINE, Metabolic Activation: NONE) of the same molecule?
Its mutagenic call is “active; positive”.

What about the mutagenic call (Test System: CHINESE HAMSTER V-79, Strain/Indicator: V-79/6-THIOGUANINE, Metabolic Activation: S-9) of the same molecule?
The mutagenic call was “inactive; negative”.

What about the mutagenic call (Test System: Mouse lymphoma, Strain/Indicator: L5178Y (tk+/tk-), Metabolic Activation: None, Method: Suspension/plate) of the same molecule?
Its mutagenic call is “inactive; negative”.

What about the mutagenic call (Test System: Mouse lymphoma, Strain/Indicator: L5178Y (tk+/tk-), Metabolic Activation: Rat, Liver, S-9, Aroclor 1254, Method: Suspension/plate) of the same molecule?
Its mutagenic call is “inactive; negative”.

For `CC1c2ccccc2-c2ccc(F)cc21` (centres undefined), which mutagenic call [12] is on record?
The mutagenic call was “active; positive”.

Which mutagenic call [9] does the source give for `CC(C)(C)c1cc(-c2ccccc2)ccc1NO` here?
The mutagenic call was “active; positive”.

What about the mutagenic call (Test System: AMES SALMONELLA TYPHIMURIUM, Strain/Indicator: TA98, Metabolic Activation: S-9, Method: STANDARD PLATE) of the same molecule?
Its mutagenic call is “active; positive”.

And the mutagenic call [11]?
The mutagenic call was “active; positive”.

And the mutagenic call (Test System: AMES SALMONELLA TYPHIMURIUM, Strain/Indicator: TA100, Metabolic Activation: S-9, Method: STANDARD PLATE)?
Its mutagenic call is “active; positive”.
